{"source": "paper PMC6100082", "about": "“Pyridine-Ureas as Potential Anticancer Agents: Synthesis and In Vitro Biological Evaluation” (Molecules : A Journal of Synthetic Chemistry and Natural …, 2018)", "key": {"[1]": {"test_system": "breast cancer MCF-7 cell line", "assay": "In vitro anti-proliferative activity, MTT assay", "type": "cell-based, human", "conditions": "Homo sapiens, MCF-7, MTT", "method": "The in vitro anti-proliferative activity of the newly prepared pyridine-ureas 8a–n was examined against breast cancer MCF-7 cell line. The assay was carried out, as triplicates, utilizing the 3-(4,5-dimethylthiazol-2-yl)-2,5-diphenyltetrazolium bromide (MTT) colorimetric assay as described by T. Mosmann. Doxorubicin and Sorafenib were included in this assay as a reference drug.\nMCF-7 (human breast cancer cell line) and WI-38 (human lung fibroblast cell line), were obtained from American Type Culture Collection (Manassas, VA, USA). The cells were propagated in DMEM and supplemented with 10% heat-inactivated FBS (Hyclone), 10 μg/mL of insulin (Manufacturer, Sigma, St. Louis, MO, USA), and 1% penicillin-streptomycin. MTT assay was utilized to examine the in vitro anti-proliferative activity of the newly prepared ureas following the reported procedures. […] The data presented are the mean of at least three separate experiments."}, "SK-MEL-5": {"test_system": "SK-MEL-5", "assay": "NCI one-dose SRB assay (Melanoma)", "type": "cell-based, human", "how_it_was_run": "(§1)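 Human cancer cells are exposed for 48 h to one dose (10^−5 M) of test compound, then cell growth is measured by SRB protein assay. Data appear as GI%.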"}, "UACC-62": {"test_system": "UACC-62", "assay": "NCI one-dose SRB assay (Melanoma)", "type": "cell-based, human", "how_it_was_run": "as §1"}, "SK-MEL-2": {"test_system": "SK-MEL-2", "assay": "NCI one-dose SRB assay (Melanoma)", "type": "cell-based, human", "how_it_was_run": "as §1"}, "M14": {"test_system": "M14", "assay": "NCI one-dose SRB assay (Melanoma)", "type": "cell-based, human", "how_it_was_run": "as §1"}, "MDA-MB-435": {"test_system": "MDA-MB-435", "assay": "NCI one-dose SRB assay (Melanoma)", "type": "cell-based, human", "how_it_was_run": "as §1"}, "HCT-116": {"test_system": "HCT-116", "assay": "NCI one-dose SRB assay (Colon Cancer)", "type": "cell-based, human", "method": "(§2) The structures of all the newly prepared pyridine-ureas 8a–n were submitted to the National Cancer Institute (NCI) Developmental Therapeutic Program. Eight compounds 8b, 8d, 8e, 8i, 8j and 8l–n were selected to be examined for their in vitro growth inhibitory activity. The anticancer assays were carried out according to the protocol of the Drug Evaluation Branch, NCI, Bethesda. The selected pyridine-ureas were tested at one dose primary anticancer assay against a panel of approximately 58 cancer lines (concentration 10^−5 M). The tested human cancer cell lines emerged from nine different cancer subtypes: leukemia, colon, melanoma, ovarian, lung, CNS, renal, breast and prostate cancers. The sulforhodamine B (SRB) protein assay was adopted to estimate the cell viability and growth. The results were reported as mean-graph of the percentage growth of the treated cells, and presented as percentage growth inhibition (GI%) caused by the test compounds (Table 2).\n(§3) The anticancer assays were performed in accordance with the protocol of the Drug Evaluation Branch, NCI, Bethesda. A 48 h drug exposure protocol was used and sulforhodamine B (SRB) protein assay was applied to estimate the cell viability and growth, as reported earlier."}, "HT29": {"test_system": "HT29", "assay": "NCI one-dose SRB assay (Colon Cancer)", "type": "cell-based, human", "method": "as §2, §3"}, "HCT-15": {"test_system": "HCT-15", "assay": "NCI one-dose SRB assay (Colon Cancer)", "type": "cell-based, human", "method": "as §2, §3"}, "HCC-2998": {"test_system": "HCC-2998", "assay": "NCI one-dose SRB assay (Colon Cancer)", "type": "cell-based, human", "method": "as §2, §3"}, "SF-295": {"test_system": "SF-295", "assay": "NCI one-dose SRB assay (CNS Cancer)", "type": "cell-based, human", "method": "as §2, §3"}, "SNB-19": {"test_system": "SNB-19", "assay": "NCI one-dose SRB assay (CNS Cancer)", "type": "cell-based, human", "method": "as §2, §3"}, "SF-268": {"test_system": "SF-268", "assay": "NCI one-dose SRB assay (CNS Cancer)", "type": "cell-based, human", "method": "as §2, §3"}, "SNB-75": {"test_system": "SNB-75", "assay": "NCI one-dose SRB assay (CNS Cancer)", "type": "cell-based, human", "method": "as §2, §3"}, "SF-539": {"test_system": "SF-539", "assay": "NCI one-dose SRB assay (CNS Cancer)", "type": "cell-based, human", "method": "as §2, §3"}, "U251": {"test_system": "U251", "assay": "NCI one-dose SRB assay (CNS Cancer)", "type": "cell-based, human", "method": "as §2, §3"}, "BT-549": {"test_system": "BT-549", "assay": "NCI one-dose SRB assay (Breast Cancer)", "type": "cell-based, human", "method": "as §2, §3"}, "MDA-MB-468": {"test_system": "MDA-MB-468", "assay": "NCI one-dose SRB assay (Breast Cancer)", "type": "cell-based, human", "method": "as §2, §3"}, "MCF7": {"test_system": "MCF7", "assay": "NCI one-dose SRB assay (Breast Cancer)", "type": "cell-based, human", "method": "as §2, §3"}, "HS 578T": {"test_system": "HS 578T", "assay": "NCI one-dose SRB assay (Breast Cancer)", "type": "cell-based, human", "method": "as §2, §3"}, "MDA-MB-231": {"test_system": "MDA-MB-231", "assay": "NCI one-dose SRB assay (Breast Cancer)", "type": "cell-based, human", "method": "as §2, §3"}, "T-47D": {"test_system": "T-47D", "assay": "NCI one-dose SRB assay (Breast Cancer)", "type": "cell-based, human", "method": "as §2, §3"}}, "note": "Where two headings read alike, the source gives them in different places."}
{"smiles": "COc1ccc(-c2ccc(NC(=O)Nc3ccc(Cl)c(C(F)(F)F)c3)c(C)n2)cc1", "note": "[Compound 8e, 1-(4-Chloro-3-(trifluoromethyl)phenyl)-3-(6-(4-methoxyphenyl)-2-methylpyridin-3-yl)urea]", "values": [{"measurement": "IC50", "setting": "[1]; MCF7, 48 h, 48 h of incubation, read-out: IC50 48 h", "value": "220 ± 20", "unit": "nM"}, {"measurement": "IC50", "setting": "[1]; MCF7, 72 h, 72 h of incubation, read-out: IC50 72 h", "value": "110 ± 100", "unit": "nM"}, {"measurement": "melting point", "value": "195 to 197", "unit": "°C"}, {"measurement": "inhibition at 10 µM", "setting": "SK-MEL-5; Homo sapiens, SK-MEL-5, 10 μM, read-out: Percentage growth inhibition (GI%)", "value": 45, "unit": "%"}, {"measurement": "Growth Percent", "setting": "SK-MEL-5; SK-MEL-5, 1.00E-5 Molar", "value": 55.66, "unit": "%"}, {"measurement": "inhibition at 10 µM", "setting": "UACC-62; Homo sapiens, UACC-62, 10 μM, read-out: Percentage growth inhibition (GI%)", "value": 35, "unit": "%"}, {"measurement": "Growth Percent", "setting": "UACC-62; UACC-62, 1.00E-5 Molar", "value": 65.57, "unit": "%"}, {"measurement": "inhibition at 10 µM", "setting": "SK-MEL-2; Homo sapiens, SK-MEL-2, 10 μM, read-out: Percentage growth inhibition (GI%)", "value": 38, "unit": "%"}, {"measurement": "Growth Percent", "setting": "SK-MEL-2; SK-MEL-2, 1.00E-5 Molar", "value": 62.13, "unit": "%"}, {"measurement": "inhibition at 10 µM", "setting": "M14; Homo sapiens, M14, 10 μM, read-out: Percentage growth inhibition (GI%)", "value": 69, "unit": "%"}, {"measurement": "Growth Percent", "setting": "M14; M14, 1.00E-5 Molar", "value": 31.87, "unit": "%"}, {"measurement": "inhibition at 10 µM", "setting": "MDA-MB-435; Homo sapiens, MDA-MB-435, 10 μM, read-out: Percentage growth inhibition (GI%)", "value": 29, "unit": "%"}, {"measurement": "Growth Percent", "setting": "MDA-MB-435; MDA-MB-435, 1.00E-5 Molar", "value": 71.95, "unit": "%"}, {"measurement": "Growth Percent", "setting": "HCT-116; HCT-116, 1.00E-5 Molar", "value": 23.73, "unit": "%"}, {"measurement": "inhibition at 10 µM", "setting": "HCT-116; Homo sapiens, HCT-116, 10 μM, read-out: Percentage growth inhibition (GI%)", "value": 77, "unit": "%"}, {"measurement": "Growth Percent", "setting": "HT29; HT29, 1.00E-5 Molar", "value": 46.44, "unit": "%"}, {"measurement": "inhibition at 10 µM", "setting": "HT29; Homo sapiens, HT-29, HT29, 10 μM, read-out: Percentage growth inhibition (GI%)", "value": 54, "unit": "%"}, {"measurement": "Growth Percent", "setting": "HCT-15; HCT-15, 1.00E-5 Molar", "value": 37.80, "unit": "%"}, {"measurement": "inhibition at 10 µM", "setting": "HCT-15; Homo sapiens, HCT-15, 10 μM, read-out: Percentage growth inhibition (GI%)", "value": 63, "unit": "%"}, {"measurement": "Growth Percent", "setting": "HCC-2998; HCC-2998, 1.00E-5 Molar", "value": 69.17, "unit": "%"}, {"measurement": "inhibition at 10 µM", "setting": "HCC-2998; Homo sapiens, HCC-2998, 10 μM, read-out: Percentage growth inhibition (GI%)", "value": 31, "unit": "%"}, {"measurement": "inhibition at 10 µM", "setting": "SF-295; Homo sapiens, SF-295, 10 μM, read-out: Percentage growth inhibition (GI%)", "value": 54, "unit": "%"}, {"measurement": "Growth Percent", "setting": "SF-295; SF-295, 1.00E-5 Molar", "value": 46.97, "unit": "%"}, {"measurement": "inhibition at 10 µM", "setting": "SNB-19; Homo sapiens, SNB-19, 10 μM, read-out: Percentage growth inhibition (GI%)", "value": 43, "unit": "%"}, {"measurement": "Growth Percent", "setting": "SNB-19; SNB-19, 1.00E-5 Molar", "value": 57.33, "unit": "%"}, {"measurement": "inhibition at 10 µM", "setting": "SF-268; Homo sapiens, SF-268, 10 μM, read-out: Percentage growth inhibition (GI%)", "value": 27, "unit": "%"}, {"measurement": "Growth Percent", "setting": "SF-268; SF-268, 1.00E-5 Molar", "value": 73.73, "unit": "%"}, {"measurement": "inhibition at 10 µM", "setting": "SNB-75; Homo sapiens, SNB-75, 10 μM, read-out: Percentage growth inhibition (GI%)", "value": 27, "unit": "%"}, {"measurement": "Growth Percent", "setting": "SNB-75; SNB-75, 1.00E-5 Molar", "value": 73.44, "unit": "%"}, {"measurement": "inhibition at 10 µM", "setting": "SF-539; Homo sapiens, SF-539, 10 μM, read-out: Percentage growth inhibition (GI%)", "value": 19, "unit": "%"}, {"measurement": "Growth Percent", "setting": "SF-539; SF-539, 1.00E-5 Molar", "value": 81.32, "unit": "%"}, {"measurement": "inhibition at 10 µM", "setting": "U251; Homo sapiens, U-251, U251, 10 μM, read-out: Percentage growth inhibition (GI%)", "value": 67, "unit": "%"}, {"measurement": "Growth Percent", "setting": "U251; U251, 1.00E-5 Molar", "value": 33.63, "unit": "%"}, {"measurement": "Growth Percent", "setting": "BT-549; BT-549, 1.00E-5 Molar", "value": 66.19, "unit": "%"}, {"measurement": "inhibition at 10 µM", "setting": "BT-549; Homo sapiens, BT-549, 10 μM, read-out: Percentage growth inhibition (GI%)", "value": 34, "unit": "%"}, {"measurement": "inhibition at 10 µM", "setting": "MDA-MB-468; Homo sapiens, MDA-MB-468, 10 μM, read-out: Percentage growth inhibition (GI%)", "value": 62, "unit": "%"}, {"measurement": "Growth Percent", "setting": "MDA-MB-468; MDA-MB-468, 1.00E-5 Molar", "value": 38.52, "unit": "%"}, {"measurement": "inhibition at 10 µM", "setting": "MCF7; Homo sapiens, MCF7, 10 μM, read-out: Percentage growth inhibition (GI%)", "value": 64, "unit": "%"}, {"measurement": "Growth Percent", "setting": "MCF7; MCF7, 1.00E-5 Molar", "value": 36.68, "unit": "%"}, {"measurement": "Growth Percent", "setting": "HS 578T; 1.00E-5 Molar", "value": 76.98, "unit": "%"}, {"measurement": "inhibition at 10 µM", "setting": "HS 578T; Homo sapiens, 10 μM, read-out: Percentage growth inhibition (GI%)", "value": 24, "unit": "%"}, {"measurement": "inhibition at 10 µM", "setting": "MDA-MB-231; Homo sapiens, MDA-MB-231, 10 μM, read-out: Percentage growth inhibition (GI%)", "value": 15, "unit": "%"}, {"measurement": "Growth Percent", "setting": "MDA-MB-231; MDA-MB-231/ATCC, 1.00E-5 Molar", "value": 85.04, "unit": "%"}, {"measurement": "Growth Percent", "setting": "T-47D; 1.00E-5 Molar", "value": 21.49, "unit": "%"}, {"measurement": "inhibition at 10 µM", "setting": "T-47D; Homo sapiens, T47D, 10 μM, read-out: Percentage growth inhibition (GI%)", "value": 79, "unit": "%"}]}
